Source: patent publication US6362181B1, “Isoquinolones” (Warner-Lambert Company, priority 1996, dated 2002)
≈ marks a conversion by molar mass, not a printed value. Where a name gives a salt, the structure may show the parent alone.

Experiments:
[1] = test system: B. subtilis RB1; experiment: Antibacterial assay, standard microtitration, MIC; type: cell-based; details: Gram positive; for MIC: Bacillus subtilis, read-out: Minimum Inhibitory Concentrations, B. subtilis RB1
Method: (§1) The compounds of the present invention were tested against an assortment of gram negative and gram positive organisms using standard microtitration techniques (Cohen, et al., Antimicrob. Agents Chemother., 1985;28:766; Heifetz, et al. Antimicrob. Agents Chemother., 1974;6:124).

[2] = test system: S. aureus 29213; experiment: Antibacterial assay, standard microtitration, MIC; type: cell-based; details: Gram positive; for MIC: Staphylococcus aureus, read-out: Minimum Inhibitory Concentrations, S. aureus 29213
Method: as §1

[3] = test system: E. coli B90; experiment: Antibacterial assay, standard microtitration, MIC; type: cell-based; details: Gram negative; for MIC: Escherichia coli, read-out: Minimum Inhibitory Concentrations, E. coli B90
Method: as §1

[4] = test system: E. coli To1C; experiment: Antibacterial assay, standard microtitration, MIC; type: cell-based; details: for MIC: Escherichia coli, TO1C, read-out: Minimum Inhibitory Concentrations, E. coli To1C; for Minimum Inhibitory Concentrations, E. coli To1C: Gram negative
Method: as §1

[5] = test system: E. coli MC4100; experiment: Antibacterial assay, standard microtitration, MIC; type: cell-based; details: Gram negative; for MIC: Escherichia coli, read-out: Minimum Inhibitory Concentrations, E. coli MC4100
Method: as §1

[6] = test system: S. pyogenes C203; experiment: Antibacterial assay, standard microtitration, MIC; type: cell-based; details: Gram positive; for MIC: Streptococcus pyogenes, read-out: Minimum Inhibitory Concentrations, S. pyogenes C203
Method: as §1

Structure (SMILES)	MIC [1] [µg/mL]	MIC [2] [µg/mL]	MIC [3] [µg/mL]	MIC [4] [µg/mL]	MIC [5] [µg/mL]	MIC [6] [µg/mL]	melting point [°C]	other results
CC(=O)Nc1cc2c3c(cccc3c1N1CCCC1)C(=O)N(O)C2=O [Example 64, 5-Acetamido-2-hydroxy-6-(pyrrolidin-1yl)-benzo[de]isoquinoline-1,3-dione]	64 (≈ 189 µM)	> 64	32 (≈ 94.3 µM)	16 (≈ 47.1 µM)	> 64	> 64	–	–
O=C1c2cccc3c([SH]4CCNCC4)c([N+](=O)[O-])cc(c23)C(=O)N1O [Example 78]	–	–	–	–	–	–	280 to 283	–
O=C1c2cccc3c(N4CCCCC4)c([N+](=O)[O-])cc(c23)C(=O)N1O [Example 77]	–	–	–	–	–	–	252 to 254	–
CC(C)NCC1CCN(c2c(Cl)cc3c4c(cccc24)C(=O)N(O)C3=O)C1.O=C(O)C(F)(F)F (stereo not drawn) [Example 86]	–	–	–	–	–	–	–	Minimum Inhibitory Concentrations, B. subtilis RB1 [1]: 2.0 µg/mL; Minimum Inhibitory Concentrations, S. aureus 29213 [2]: 4.0 µg/mL; Minimum Inhibitory Concentrations, E. coli B90 [3]: 0.5 µg/mL; Minimum Inhibitory Concentrations, E. coli To1C [4]: 0.5 µg/mL; Minimum Inhibitory Concentrations, E. coli MC4100 [5]: 8.0 µg/mL; Minimum Inhibitory Concentrations, S. pyogenes C203 [6]: 4.0 µg/mL
NC1CCN(c2c(Cl)cc3c4c(cccc24)C(=O)N(O)C3=O)C1.O=C(O)C(F)(F)F (stereo not drawn) [Example 99]	–	–	–	–	–	–	–	Minimum Inhibitory Concentrations, B. subtilis RB1 [1]: 1.0 µg/mL; Minimum Inhibitory Concentrations, S. aureus 29213 [2]: 8.0 µg/mL; Minimum Inhibitory Concentrations, E. coli B90 [3]: 1.0 µg/mL; Minimum Inhibitory Concentrations, E. coli To1C [4]: 0.5 µg/mL; Minimum Inhibitory Concentrations, E. coli MC4100 [5]: 2.0 µg/mL; Minimum Inhibitory Concentrations, S. pyogenes C203 [6]: 4.0 µg/mL
O=C1c2cccc3c(N4CCNCC4)c([N+](=O)[O-])cc(c23)C(=O)N1O	–	–	–	–	–	–	300 to 302	–
O=C1c2cccc3c(N4CCCCC4)c(Br)cc(c23)C(=O)N1O [Example 49, 5-Bromo-2-hydroxy-6-(piperidine-1-yl)-benzo[de]isoquinoline-1,3-dione]	1 (≈ 2.67 µM)	2 (≈ 5.33 µM)	4 (≈ 10.7 µM)	8 (≈ 21.3 µM)	64 (≈ 171 µM)	64 (≈ 171 µM)	–	–
O=C1c2cc([N+](=O)[O-])cc3c(N4CCCC4)c([N+](=O)[O-])cc(c23)C(=O)N1O [Example 111, 2-Hydroxy-5,8-dinitro-6-(pyrrolidin-1-yl)-benzo[de]isoquinoline-1,3-dione]	32 (≈ 86 µM)	8 (≈ 21.5 µM)	2 (≈ 5.37 µM)	4 (≈ 10.7 µM)	> 64	> 64	–	–
CCCCCN1COc2cc3c4c(cccc4c2C1)C(=O)N(O)C3=O [Example 129]	–	–	–	–	–	–	194 to 196	–
NCC1CCN(c2c(Cl)cc3c4c(cccc24)C(=O)N(O)C3=O)C1 (stereo not drawn) (as salt: HCl) [Example 85]	–	–	–	–	–	–	229 to 232	–
O=C1c2cccc3c(N4CCCC4)ccc(c23)C(=O)N1O [Example 18, 2-Hydroxy-6-(pyrrolidin-1-yl)-benzo[de]isoquinoline-1,3-dione]	2 (≈ 7.08 µM)	1 (≈ 3.54 µM)	4 (≈ 14.2 µM)	1 (≈ 3.54 µM)	> 64	4 (≈ 14.2 µM)	–	–
O=C1c2cccc3c([N+](=O)[O-])c(Br)cc(c23)C(=O)N1O [Example 108, 5-Bromo-2-hydroxy-6-nitro-benzo[de]isoquinoline-1,3-dione]	2 (≈ 5.93 µM)	4 (≈ 11.9 µM)	0.25 (≈ 0.742 µM)	0.5 (≈ 1.48 µM)	8 (≈ 23.7 µM)	16 (≈ 47.5 µM)	–	–
Cc1cc2c3c(cccc3c1)C(=O)N(O)C2=O [Example 21, 2-Hydroxy-5-methyl-benzo[de]isoquinoline-1,3-dione]	4 (≈ 17.6 µM)	16 (≈ 70.4 µM)	2 (≈ 8.8 µM)	1 (≈ 4.4 µM)	8 (≈ 35.2 µM)	64 (≈ 282 µM)	–	–
CN(C)CCN1C(=O)c2cccc3cc([N+](=O)[O-])cc(c23)C1=O [Mitonafide, mitonafide, reference compound]	16 (≈ 51.1 µM)	32 (≈ 102 µM)	8 (≈ 25.5 µM)	–	32 (≈ 102 µM)	4 (≈ 12.8 µM)	–	–
Nc1cc2c3c(cccc3c1[SH]1CCNCC1)C(=O)N(O)C2=O [Example 73]	–	–	–	–	–	–	270 to 274	–
O=C1c2ccc([N+](=O)[O-])c3c([N+](=O)[O-])ccc(c23)C(=O)N1O [Example 48, 2-Hydroxy-6,7-dinitro-benzo[de]isoquinoline-1,3-dione]	8 (≈ 26.4 µM)	2 (≈ 6.6 µM)	4 (≈ 13.2 µM)	4 (≈ 13.2 µM)	16 (≈ 52.8 µM)	1 (≈ 3.3 µM)	–	–
CCCCNC(=O)Nc1cc2c3c(cccc3c1)C(=O)N(O)C2=O [Example 100]	–	–	–	–	–	–	> 250	–
CN1CCN(c2c([N+](=O)[O-])cc3c4c(cccc24)C(=O)N(O)C3=O)CC1 [Example 80]	–	–	–	–	–	–	320 to 322	–
Cl.N[C@H]1CCN(c2c(Br)cc3c4c(cccc24)C(=O)N(O)C3=O)C1 [Example 54, (S)-6-(3-Amino-pyrrolidin-1-yl)-5-bromo-2-hydroxy-1H-benzo[de]isoquinoline-1,3-dione, Hydrochloride]	2	8	0.5	0.5	2	4	–	–
O=C1c2cccc3c(N4CCCCC4)c(Cl)cc(c23)C(=O)N1O [Example 94]	–	–	–	–	–	–	228 to 229	–

Structure (SMILES)	MIC [1] [µg/mL]	MIC [2] [µg/mL]	MIC [3] [µg/mL]	MIC [4] [µg/mL]	MIC [5] [µg/mL]	MIC [6] [µg/mL]	melting point [°C]	other results
CC(=O)Nc1cc2c3c(cccc3c1[SH]1CCNCC1)C(=O)C(O)C2=O (stereo not drawn) [Example 67]	–	–	–	–	–	–	292 to 295	–
CC(=O)OCCOc1cc2c3c(cccc3c1)C(=O)N(O)C2=O [Example 23, 2-Hydroxy-5-(2-acetoxy-ethoxy)-benzo[de]isoquinoline-1,3-dione]	4 (≈ 12.7 µM)	> 64	2 (≈ 6.34 µM)	1 (≈ 3.17 µM)	16 (≈ 50.7 µM)	> 64	–	–
CC1(CN)CCN(c2c(Cl)cc3c4c(cccc24)C(=O)N(O)C3=O)C1 (stereo not drawn) (as salt: TFA) [Example 89]	–	–	–	–	–	–	160 to 166	–
CNC(=O)Nc1cc2c3c(cccc3c1)C(=O)N(O)C2=O [Example 101]	–	–	–	–	–	–	> 250	–
O=C1c2cccc3c4c(cc(c23)C(=O)N1O)OCN(C1CC1)C4 [Example 131]	–	–	–	–	–	–	–	Minimum Inhibitory Concentrations, B. subtilis RB1 [1]: 32 µg/mL; Minimum Inhibitory Concentrations, S. aureus 29213 [2]: >64 µg/mL; Minimum Inhibitory Concentrations, E. coli B90 [3]: 8.0 µg/mL; Minimum Inhibitory Concentrations, E. coli To1C [4]: 8.0 µg/mL; Minimum Inhibitory Concentrations, E. coli MC4100 [5]: 32 µg/mL; Minimum Inhibitory Concentrations, S. pyogenes C203 [6]: >64 µg/mL
CN1CCN(c2c(Cl)cc3c4c(cccc24)C(=O)N(O)C3=O)CC1 (as salt: TFA) [Example 98]	–	–	–	–	–	–	> 250	–
Cc1cc2c3c(cccc3c1Br)C(=O)N(O)C2=O [Example 104, 6-Bromo-5-methyl-2-hydroxy-benzo[de]isoquinoline-1,3-dione]	0.5 (≈ 1.63 µM)	4 (≈ 13.1 µM)	0.25 (≈ 0.817 µM)	0.25 (≈ 0.817 µM)	> 64	> 64	–	–
COc1cc2c3c(cccc3c1N1CCCCC1)C(=O)N(O)C2=O [Example 35, 2-Hydroxy-5-methoxy-6-(piperidin-1-yl)-benzo[de]isoquinoline-1,3-dione]	2 (≈ 6.13 µM)	1 (≈ 3.06 µM)	64 (≈ 196 µM)	64 (≈ 196 µM)	> 64	4 (≈ 12.3 µM)	–	–
O=C1c2cccc3c([SH]4CCNCC4)c(Cl)cc(c23)C(=O)N1O [Example 95]	–	–	–	–	–	–	240 to 242	–
CN1COc2cc3c4c(cccc4c2C1)C(=O)N(O)C3=O [Example 127]	–	–	–	–	–	–	247 to 249	–
CC(=O)Nc1cc2c3c(cccc3c1N1CCCCC1)C(=O)C(O)C2=O (stereo not drawn) [Example 65]	–	–	–	–	–	–	252 to 255	–
CN(C)c1c(Br)cc2c3c(cccc13)C(=O)N(O)C2=O [Example 53, 5-Bromo-6-dimethylamino-2-hydroxy-benzo[de]isoquinoline-1,3-dione]	2 (≈ 5.97 µM)	4 (≈ 11.9 µM)	2 (≈ 5.97 µM)	1 (≈ 2.98 µM)	64 (≈ 191 µM)	32 (≈ 95.5 µM)	–	–
CCOc1cc2c3c(cccc3c1)C(=O)N(O)C2=O [Example 14, 5-Ethoxy-2-hydroxy-benzo[de]isoquinoline-1,3-dione]	1 (≈ 3.89 µM)	8 (≈ 31.1 µM)	0.25 (≈ 0.972 µM)	0.13 (≈ 0.505 µM)	2 (≈ 7.77 µM)	> 64	–	–
CCCNC(=O)Nc1cc2c3c(cccc3c1)C(=O)N(O)C2=O [Example 102]	16 (≈ 51.1 µM)	> 64	32 (≈ 102 µM)	16 (≈ 51.1 µM)	> 64	> 64	> 250	–
NC1CCN(c2c([N+](=O)[O-])cc3c4c(cccc24)C(=O)N(O)C3=O)C1 (stereo not drawn) [Example 82]	–	–	–	–	–	–	259 to 263	–
O=C1c2cccc3c4c(cc(c23)C(=O)N1O)OCOC4 [Example 45, 5-Hydroxy-11H-8,10-dioxa-5-aza-benzo[de]anthracene-4,6-dione]	0.25 (≈ 0.922 µM)	1 (≈ 3.69 µM)	0.13 (≈ 0.479 µM)	0.13 (≈ 0.479 µM)	0.5 (≈ 1.84 µM)	8 (≈ 29.5 µM)	–	–
O=C1c2cccc3c(N4CCCC4)c(F)cc(c23)C(=O)N1O [Example 134, 5-Fluoro-2-hydroxy-6-(pyrrolidin-1-yl)-benzo[de]isoquinoline-1,3-dione]	1 (≈ 3.33 µM)	1 (≈ 3.33 µM)	0.5 (≈ 1.67 µM)	0.5 (≈ 1.67 µM)	> 64	8 (≈ 26.6 µM)	–	–
O=C1c2cccc3c(N4CC[C@H](O)C4)c(Cl)cc(c23)C(=O)N1O [Example 84]	–	–	–	–	–	–	197 to 201	–
N#Cc1cc2c3c(cccc3c1N1CCCC1)C(=O)N(O)C2=O [Example 57, 5-Cyano-2-hydroxy-6-(pyrrolidin-1-yl)-benzo[de]isoquinoline-1,3-dione]	1 (≈ 3.25 µM)	4 (≈ 13 µM)	0.5 (≈ 1.63 µM)	0.5 (≈ 1.63 µM)	32 (≈ 104 µM)	32 (≈ 104 µM)	–	–
